Read-outs that look alike come from different tables or passages of the source.
What was measured:
SARS-CoV-2 Mpro = SARS-CoV-2 Mpro (Severe acute respiratory syndrome coronavirus 2, UniProt P0DTD1); assay: SARS-CoV-2 Mpro enzymatic inhibition assay (fluorescence); type: biochemical
Procedure: (§1) The hCoV Mpro are cloned, expressed in E. coli and purified by WuXi AppTec Co., Ltd. The substrate are synthesized by Genscript Biotech.
Compounds are 3 fold serially diluted for 10 doses and added to an assay plate (384w format) using ECHO, in duplicate wells. The test concentration of test compounds is defined by sponsor.
(§2) 25 μL of Mpro proteins are added to the assay plates containing compounds, respectively, using Multidrop. The compounds and Mpro proteins are pre-incubated at room temperature for 30 min. Then 5 µL of Mpro substrates are added to the related assay plates, respectively.
(§3) After 60 min incubation at 30° C., the fluorescence signal (RFU) is detected using a microplate reader M2e (SpectraMax) at Ex/Em=340 nm/490 nm.
(§4) The inhibition activity is calculated using the formula below, IC50 values will be calculated using the Inhibition % data.
(§5) IC50 values of compounds are calculated with the GraphPad Prism software using the nonlinear regression model of log(inhibitor) vs. response—Variable slope (four parameters).

HCoV-229E Mpro = HCoV-229E Mpro (Human coronavirus 229E, UniProt P0C6X1); assay: HCoV-229E Mpro enzymatic inhibition assay (fluorescence); type: biochemical
Procedure: as §1
(§6) Compounds are 3 fold serially diluted for 10 doses and added to an assay plate (384w format) using ECHO, in duplicate wells. The test concentration of test compounds is defined by sponsor. […] For no inhibition control (ZPE, zero percent effect), DMSO is added.
as §2, with “respectively. Each activity testing point has a relevant background control to normalize the fluorescence interference of compound.” for “respectively.”
as §3, §4
(§7) Inhibition %=[(CPD−BGCPD)−(ZPE−BGZPE)/(HPE−BGHPE)−(ZPE−BGZPE)]×[…] • CPD: Signal of test compounds wells, containing compound+enzyme+substrate. • ZPE: Average of signals of zero percent effective control wells, containing enzyme+substrate, no compound. • HPE: Average of signals of hundred percent effect control wells, containing GC376+enzyme+substrate. • BG: Compound background control wells, containing compound+substrate, no enzyme
as §5

HCoV-HKU1 Mpro = HCoV-HKU1 Mpro (Human coronavirus HKU1, UniProt P0C6X2); assay: HCoV-HKU1 Mpro enzymatic inhibition assay (fluorescence); type: biochemical
Procedure: as §1, §6
as §2, with “respectively. Each activity testing point has a relevant background control to normalize the fluorescence interference of compound.” for “respectively.”
as §3, §4, §7, §5

MERS Mpro = MERS Mpro (Middle East respiratory syndrome-related coronavirus, UniProt K9N7C7); assay: biochemical; design: species or system MERS-CoV
HCoV-NL63 Mpro = HCoV-NL63 Mpro (Human coronavirus NL63, UniProt P0C6X5); assay: HCoV-NL63 Mpro enzymatic inhibition assay (fluorescence); type: biochemical
Procedure: as §1, §6
as §2, with “respectively. Each activity testing point has a relevant background control to normalize the fluorescence interference of compound.” for “respectively.”
as §3, §4, §7, §5

HCoV-OC43 Mpro = HCoV-OC43 Mpro (Human coronavirus OC43, UniProt P0C6X6); assay: HCoV-OC43 Mpro enzymatic inhibition assay (fluorescence); type: biochemical
Procedure: as §1, §6
as §2, with “respectively. Each activity testing point has a relevant background control to normalize the fluorescence interference of compound.” for “respectively.”
as §3, §4, §7, §5

SARS-CoV-1 Mpro = SARS-CoV-1 Mpro (Severe acute respiratory syndrome coronavirus, UniProt P0C6X7); assay: biochemical

Sequence of HCoV-HKU1 Mpro (P0C6X2 3335-3637 limits assumed): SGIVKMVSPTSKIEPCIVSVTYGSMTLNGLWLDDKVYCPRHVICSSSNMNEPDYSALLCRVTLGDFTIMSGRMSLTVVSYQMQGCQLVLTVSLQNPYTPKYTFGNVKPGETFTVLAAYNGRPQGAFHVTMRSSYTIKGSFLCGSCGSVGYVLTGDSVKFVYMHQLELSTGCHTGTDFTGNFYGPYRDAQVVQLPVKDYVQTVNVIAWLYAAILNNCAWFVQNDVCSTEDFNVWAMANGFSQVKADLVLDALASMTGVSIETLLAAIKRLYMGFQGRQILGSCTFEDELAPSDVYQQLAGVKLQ
Sequence of HCoV-OC43 Mpro (P0C6X6 3247-3549 limits assumed): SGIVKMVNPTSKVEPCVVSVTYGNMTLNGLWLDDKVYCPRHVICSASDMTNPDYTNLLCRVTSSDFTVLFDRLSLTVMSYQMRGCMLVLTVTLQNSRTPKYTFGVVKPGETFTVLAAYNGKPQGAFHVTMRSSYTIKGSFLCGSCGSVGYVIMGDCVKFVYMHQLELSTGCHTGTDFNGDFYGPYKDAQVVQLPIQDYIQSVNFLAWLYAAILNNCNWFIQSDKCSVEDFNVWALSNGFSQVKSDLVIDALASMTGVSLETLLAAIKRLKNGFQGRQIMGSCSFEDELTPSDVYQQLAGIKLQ
Sequence of HCoV-229E Mpro (P0C6X1 2966-3267 limits assumed): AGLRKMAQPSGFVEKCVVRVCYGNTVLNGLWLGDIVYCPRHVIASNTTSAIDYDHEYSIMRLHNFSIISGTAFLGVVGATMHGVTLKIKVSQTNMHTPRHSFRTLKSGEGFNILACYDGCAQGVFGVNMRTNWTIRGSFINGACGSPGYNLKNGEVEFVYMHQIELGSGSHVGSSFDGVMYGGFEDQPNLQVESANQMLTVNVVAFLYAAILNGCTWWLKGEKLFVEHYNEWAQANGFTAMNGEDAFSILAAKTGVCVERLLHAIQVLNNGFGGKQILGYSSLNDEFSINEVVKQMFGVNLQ
Sequence of MERS Mpro (K9N7C7 3248-3553 limits assumed): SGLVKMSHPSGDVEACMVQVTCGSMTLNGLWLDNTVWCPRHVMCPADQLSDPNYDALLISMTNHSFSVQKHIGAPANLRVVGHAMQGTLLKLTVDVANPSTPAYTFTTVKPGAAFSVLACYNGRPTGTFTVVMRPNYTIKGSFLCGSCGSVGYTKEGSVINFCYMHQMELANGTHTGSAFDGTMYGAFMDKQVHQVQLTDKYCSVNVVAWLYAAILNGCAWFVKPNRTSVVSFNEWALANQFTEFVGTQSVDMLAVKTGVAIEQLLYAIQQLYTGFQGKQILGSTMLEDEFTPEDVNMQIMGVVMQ
Sequence of HCoV-NL63 Mpro (P0C6X5 2940-3242 limits assumed): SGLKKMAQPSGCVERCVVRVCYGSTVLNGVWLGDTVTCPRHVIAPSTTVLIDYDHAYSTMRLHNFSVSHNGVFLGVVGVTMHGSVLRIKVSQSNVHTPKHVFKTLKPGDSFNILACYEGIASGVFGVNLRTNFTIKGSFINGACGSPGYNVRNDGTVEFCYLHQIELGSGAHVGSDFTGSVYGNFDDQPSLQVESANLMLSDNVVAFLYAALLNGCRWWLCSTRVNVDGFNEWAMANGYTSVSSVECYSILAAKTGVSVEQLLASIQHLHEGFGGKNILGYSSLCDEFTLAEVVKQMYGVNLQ

Compound	IC50 (SARS-CoV-2 Mpro)	IC50 (HCoV-229E Mpro)	IC50 (HCoV-HKU1 Mpro)	IC50 (MERS Mpro)	IC50 (HCoV-NL63 Mpro)	IC50 (HCoV-OC43 Mpro)	IC50 (SARS-CoV-1 Mpro)	IC50 (SARS-CoV-2 Mpro; mean, 25 nM protein, 25 μM substrate, 30 min pre-incubation, 60 min at 30° C., read-out: Mpro_SARS-CoV-2 mean IC50)
O=C[C@H](C[C@@H]1CCNC1=O)NC(=O)[C@@H]1CC2(CC2)CN1C(=O)c1cc2c(F)cccc2[nH]1 [Compound 3, (S)-5-(4-fluoro-1H-indole-2-carbonyl)-N—((S)-1-oxo-3-((S)-2-oxopyrrolidin-3-yl)propan-2-yl)-5-azaspiro[2.4]heptane-6-carboxamide]	10.1 nM	27.4 nM	9.95 nM	110 nM	17.8 nM	25 nM	19.3 nM	–
CC1(C)[C@@H]2[C@@H](C(=O)N[C@H](C=O)C[C@@H]3CCNC3=O)N(C(=O)c3cc4ccc(F)c(F)c4[nH]3)C[C@@H]21 [Compound 4, (1R,2S,5S)-3-(6,7-difluoro-1H-indole-2-carbonyl)-6,6-dimethyl-N—((S)-1-oxo-3-((S)-2-oxopyrrolidin-3-yl)propan-2-yl)-3-azabicyclo[3.1.0]hexane-2-carboxamide]	10.2 nM	28.5 nM	26.8 nM	198 nM	34.4 nM	40.8 nM	23.6 nM	–
CC1(C)[C@@H]2[C@@H](C(=O)N[C@H](C=O)C[C@@H]3CCNC3=O)N(C(=O)c3cc4cccc(Cl)c4[nH]3)C[C@@H]21 [Compound 5, (1R,2S,5S)-3-(7-chloro-1H-indole-2-carbonyl)-6,6-dimethyl-N—((S)-1-oxo-3-((S)-2-oxopyrrolidin-3-yl)propan-2-yl)-3-azabicyclo[3.1.0]hexane-2-carboxamide]	10.5 nM	33.9 nM	22 nM	147 nM	53.5 nM	42.1 nM	22.5 nM	–
CC1(C)[C@@H]2[C@@H](C(=O)N[C@H](C=O)C[C@@H]3CCNC3=O)N(C(=O)c3cc4cccc(F)c4[nH]3)C[C@@H]21 [Compound 6, (1R,2S,5S)-3-(7-fluoro-1H-indole-2-carbonyl)-6,6-dimethyl-N—((S)-1-oxo-3-((S)-2-oxopyrrolidin-3-yl)propan-2-yl)-3-azabicyclo[3.1.0]hexane-2-carboxamide]	10.8 nM	31.1 nM	25.1 nM	168 nM	38.3 nM	38.8 nM	19.5 nM	–
Cc1cccc([C@@H](C)C(=O)N2C[C@H]3[C@@H]([C@H]2C(=O)N[C@H](C=O)C[C@@H]2CCNC2=O)C3(C)C)c1 [Compound 7, (1R,2S,5S)-6,6-dimethyl-N—((S)-1-oxo-3-((S)-2-oxopyrrolidin-3-yl)propan-2-yl)-3-((R)-2-(m-tolyl)propanoyl)-3-azabicyclo[3.1.0]hexane-2-carboxamide]	–	22 nM	9.2 nM	81 nM	33.6 nM	26.6 nM	12.9 nM	11 nM
CC1(C)[C@@H]2[C@@H](C(=O)N[C@H](C=O)C[C@@H]3CCNC3=O)N(C(=O)C3(c4cccc(Cl)c4)CC3)C[C@@H]21 [Compound 8, (1R,2S,5S)-3-(1-(3-chlorophenyl)cyclopropanecarbonyl)-6,6-dimethyl-N—((S)-1-oxo-3-((S)-2-oxopyrrolidin-3-yl)propan-2-yl)-3-azabicyclo[3.1.0]hexane-2-carboxamide]	11.3 nM	21.8 nM	7.74 nM	88.7 nM	37.6 nM	18.9 nM	11.9 nM	–
CC1(C)C[C@@H](C(=O)N[C@H](C=O)C[C@@H]2CCNC2=O)N(C(=O)c2cc3cccc(Cl)c3[nH]2)C1 [Compound 9, (S)-1-(7-chloro-1H-indole-2-carbonyl)-4,4-dimethyl-N—((S)-1-oxo-3—((S)-2-oxopyrrolidin-3-yl)propan-2-yl)pyrrolidine-2-carboxamide]	12.1 nM	30.9 nM	20.5 nM	313 nM	52.3 nM	65.1 nM	37.8 nM	–
O=C[C@H](C[C@@H]1CCNC1=O)NC(=O)[C@@H]1CC2(CCC2)CN1C(=O)c1cc2ccccc2[nH]1 [Compound 10, (S)-6-(1H-indole-2-carbonyl)-N—((S)-1-oxo-3-((S)-2-oxopyrrolidin-3-yl)propan-2-yl)-6-azaspiro[3.4]octane-7-carboxamide]	12.3 nM	32.3 nM	17.7 nM	194 nM	45 nM	35.8 nM	45.3 nM	–
CC1(C)[C@@H]2[C@@H](C(=O)N[C@H](C=O)C[C@@H]3CCCNC3=O)N(C(=O)c3cc4ccccc4[nH]3)C[C@@H]21 [Compound 11, (1R,2S,5S)-3-(1H-indole-2-carbonyl)-6,6-dimethyl-N—((S)-1-oxo-3-((S)-2-oxopiperidin-3-yl)propan-2-yl)-3-azabicyclo[3.1.0]hexane-2-carboxamide]	13.2 nM	37.2 nM	40 nM	230 nM	50.6 nM	34.1 nM	38.4 nM	–
CC1(C)[C@@H]2[C@@H](C(=O)N[C@H](C=O)C[C@@H]3CCNC3=O)N(C(=O)c3cc4c(F)ccc(F)c4[nH]3)C[C@@H]21 [Compound 13, (1R,2S,5S)-3-(4,7-difluoro-1H-indole-2-carbonyl)-6,6-dimethyl-N—((S)-1-oxo-3-((S)-2-oxopyrrolidin-3-yl)propan-2-yl)-3-azabicyclo[3.1.0]hexane-2-carboxamide]	14 nM	48.1 nM	38.2 nM	372 nM	76.3 nM	69 nM	37.7 nM	–
CCc1cccc2[nH]c(C(=O)N3C[C@H]4[C@@H]([C@H]3C(=O)N[C@H](C=O)C[C@@H]3CCNC3=O)C4(C)C)cc12 [Compound 14, (1R,2S,5S)-3-(4-ethyl-1H-indole-2-carbonyl)-6,6-dimethyl-N—((S)-1-oxo-3-((S)-2-oxopyrrolidin-3-yl)propan-2-yl)-3-azabicyclo[3.1.0]hexane-2-carboxamide]	14.5 nM	39.6 nM	22.2 nM	322 nM	49.3 nM	39.4 nM	52 nM	–
CC1(C)[C@@H]2[C@@H](C(=O)N[C@H](C=O)C[C@@H]3CCNC3=O)N(C(=O)c3cc4c(F)cccc4[nH]3)C[C@@H]21 [Compound 15, (1R,2S,5S)-3-(4-fluoro-1H-indole-2-carbonyl)-6,6-dimethyl-N—((S)-1-oxo-3-((S)-2-oxopyrrolidin-3-yl)propan-2-yl)-3-azabicyclo[3.1.0]hexane-2-carboxamide]	14.5 nM	39.7 nM	24.2 nM	175 nM	44.5 nM	32.8 nM	32.7 nM	–
CC1(C)[C@@H]2[C@@H](C(=O)N[C@H](C=O)C[C@@H]3CCNC3=O)N(C(=O)CC3CCC(F)(F)CC3)C[C@@H]21 [Compound 16, (1R,2S,5S)-3-(2-(4,4-difluorocyclohexyl)acetyl)-6,6-dimethyl-N—((S)-1-oxo-3-((S)-2-oxopyrrolidin-3-yl)propan-2-yl)-3-azabicyclo[3.1.0]hexane-2-carboxamide]	14.6 nM	24.9 nM	12.5 nM	157 nM	28.9 nM	30.5 nM	23.5 nM	–
CC1(C)[C@@H]2[C@@H](C(=O)N[C@H](C=O)C[C@@H]3CCNC3=O)N(C(=O)C3(c4ccccc4)CCCC3)C[C@@H]21 [Compound 17, (1R,2S,5S)-6,6-dimethyl-N—((S)-1-oxo-3-((S)-2-oxopyrrolidin-3-yl)propan-2-yl)-3-(1-phenylcyclopentanecarbonyl)-3-azabicyclo[3.1.0]hexane-2-carboxamide]	15.2 nM	48.4 nM	23.7 nM	276 nM	180 nM	59.8 nM	27.8 nM	–

— patent publication US20260355212A1 (priority 2022, published 2026)
